Results reported in ChEMBL document CHEMBL5131514, “Structure and Mechanism-Guided Design of Dual Serine/Metallo-Carbapenemase Inhibitors” (J Med Chem, 2022).
Values belong to the molecule of their own block, whether it stands above or below them.

Columns and labels:
[1] = Inhibition of bacterial beta-lactamase KPC-2 using nitrocefin as substrate incubated for 10 mins and measured every 10 seconds for 10 mins; design: species or system Bacteria
[2] = Inhibition of bacterial beta-lactamase CTX-M-15 using nitrocefin as substrate incubated for 10 mins and measured every 10 seconds for 10 mins; design: species or system Bacteria
[3] = Inhibition of bacterial beta-lactamase SHV-12 using nitrocefin as substrate incubated for 10 mins and measured every 10 seconds for 10 mins; design: species or system Bacteria
[4] = Inhibition of bacterial beta-lactamase TEM-10 using nitrocefin as substrate incubated for 10 mins and measured every 10 seconds for 10 mins; design: species or system Bacteria
[5] = Inhibition of bacterial beta-lactamase P99 using nitrocefin as substrate incubated for 10 mins and measured every 10 seconds for 10 mins; design: species or system Bacteria
[6] = Inhibition of bacterial beta-lactamase OXA-48 using nitrocefin as substrate incubated for 10 mins and measured every 10 seconds for 10 mins; design: species or system Bacteria
[7] = Inhibition of bacterial beta-lactamase IMP-1 using imipenem as substrate incubated for 10 mins followed by substrate addition measured every 30 seconds for 1 hr; design: species or system Bacteria
[8] = Inhibition of bacterial beta-lactamase VIM-1 using nitrocefin as substrate incubated for 10 mins followed by substrate addition measured every 10 seconds for 10 mins; design: species or system Bacteria
[9] = Binding affinity to recombinant full-length bacterial beta-lactamase KPC-2 assessed as inhibition constant using nitrocefin as substrate by spectrophotometric assay; design: species or system Bacteria
[10] = Binding affinity to bacterial beta-lactamase VIM-1 expressed in Escherichia coli BL21 (DE3) assessed as inhibition constant using nitrocefin as substrate by spectrophotometric assay; design: species or system Bacteria
[11] = Binding affinity to Pseudomonas aeruginosa beta-lactamase IMP-1 expressed in Escherichia coli Lemo21(DE3) assessed as inhibition constant using nitrocefin as substrate by spectrophotometric assay
[12] = Inhibition of bacterial beta-lactamase KPC-2 expressed in Escherichia coli BL21 (DE3) assessed as inhibition constant using nitrocefin as substrate by microplate reader analysis; design: species or system Bacteria
[13] = Inhibition of bacterial beta-lactamase NDM-1 (42 to 270 residues) expressed in Escherichia coli BL21 (DE3) assessed as inhibition constant using nitrocefin as substrate by microplate reader analysis; design: species or system Bacteria
Bacteria [14] = assay: Inhibition of bacterial beta-lactamase CTX-M-15 at 200 uM CENTA substrate by colorimetric assay relative to control
Bacteria [15] = assay: Inhibition of bacterial beta-lactamase KPC-2 at 200 uM using CENTA substrate by colorimetric assay relative to control
Bacteria [16] = assay: Inhibition of recombinant bacterial beta-lactamase […] (28 to 270 residues) at 200 uM using CENTA substrate by colorimetric assay relative to control
Bacteria [17] = assay: Inhibition of recombinant bacterial beta-lactamase VIM-2 (26 to 266 residues) expressed in Escherichia coli Lemo21(DE3) at 200 uM using CENTA substrate by colorimetric assay relative to control
Bacteria [18] = assay: Inhibition of bacterial beta-lactamase AmpC at 200 uM using CENTA substrate by colorimetric assay relative to control
[19] = Inhibition of recombinant bacterial beta-lactamase VIM-2 MBL (27 to 266 residues) expressed in Escherichia coli Transetta (DE3) using FC-1 as substrate preincubated for 10 mins followed by substrate addition measured every 60 secs by fluorescence based assay; design: species or system Bacteria
[20] = Inhibition of recombinant bacterial beta-lactamase NDM-1 MBL (1 to 270 residues) expressed in Escherichia coli Transetta (DE3) using FC-1 as substrate preincubated for 10 mins followed by substrate addition measured every 60 secs by fluorescence based assay; design: species or system Bacteria
[21] = Inhibition of recombinant bacterial beta-lactamase TEM-1 SBL (24 to 286 residues) expressed in Escherichia coli Transetta (DE3) using FC-1 as substrate preincubated for 4 hrs followed by substrate addition measured every 60 secs by fluorescence based assay; design: species or system Bacteria
[22] = Inhibition of bacterial beta-lactamase CTX-M-15 assessed as inhibition constant using cephalothin as substrate by spectrophotometric assay; design: species or system Bacteria
[23] = Inhibition of recombinant bacterial beta-lactamase […] (28 to 270 residues) assessed as inhibition constant using imipenem as substrate by spectrophotometric assay; design: species or system Bacteria

- IC50 [1]: 0.0029 µM
- IC50 [2]: 0.0012 µM
- IC50 [3]: 0.0019 µM
- IC50 [4]: 0.0022 µM
- IC50 [5]: 0.022 µM
- IC50 [6]: 0.0011 µM
- IC50 [7]: 0.61 µM
- IC50 [8]: 0.014 µM
SMILES: O=C(O)c1c(F)ccc2c1OB(O)[C@@H]1C[C@H]21 [XERUBORBACTAM]

- inhibition (Bacteria [14]): 55%
- inhibition (Bacteria [15]): 66%
- inhibition (Bacteria [16]): 79%
- inhibition (Bacteria [17]): 45%
- inhibition (Bacteria [18]): 32%
SMILES: O=C(NC(=S)NNC(=O)c1cccs1)c1ccc(Br)o1

- IC50 [19]: 11.1 µM
- IC50 [20]: 32 µM
- IC50 [21]: 68.4 µM
SMILES: O=P(O)(O)C(c1ccccc1-c1ccccn1)P(=O)(O)O

- Ki [9]: 263 µM
SMILES: CCN(CC)c1ccc(CNn2cn[nH]c2=S)cc1
- Ki [10]: 224 µM
- Ki [11]: 173 µM

- inhibition (Bacteria [14]): 49%
- inhibition (Bacteria [15]): 46%
- inhibition (Bacteria [16]): 62%
- inhibition (Bacteria [17]): 81%
- inhibition (Bacteria [18]): < 20%
SMILES: Sc1nnc(-c2ccco2)n1C1CC1

- inhibition (Bacteria [14]): 32%
- inhibition (Bacteria [15]): 41%
- inhibition (Bacteria [16]): 71%
- inhibition (Bacteria [17]): 33%
- inhibition (Bacteria [18]): 50%
- Ki [22]: 50 µM
- Ki [23]: 32 µM
SMILES: S=C(N/N=C/c1ccccc1)N1CCOCC1

- IC50 [19]: 3.78 µM
- IC50 [20]: 17.1 µM
- IC50 [21]: 1.73 µM
SMILES: O=P(O)(O)C(c1ccc2ccccc2c1-c1ccccn1)P(=O)(O)O

- inhibition (Bacteria [14]): < 20%
- inhibition (Bacteria [15]): < 20%
- inhibition (Bacteria [16]): 70%
- inhibition (Bacteria [17]): 86%
- inhibition (Bacteria [18]): 37%
SMILES: CCn1c(S)nnc1-c1nn(C)c(C)c1Cl

- inhibition (Bacteria [14]): 33%
- inhibition (Bacteria [15]): < 20%
- inhibition (Bacteria [16]): 54%
- inhibition (Bacteria [17]): 87%
- inhibition (Bacteria [18]): < 20%
SMILES: Sc1nnc(-c2cccnc2)n1CC1CCCO1 (centres undefined)

- IC50 [19]: 5.58 µM
- IC50 [20]: 15 µM
- IC50 [21]: 11.5 µM
SMILES: O=P(O)(O)C(c1cc2ccccc2n1-c1ncccn1)P(=O)(O)O

The next lines start with the molecule.

SMILES: Sc1nncn1/N=C/c1ccc(Br)cc1
- Ki [9]: 158 µM
- Ki [10]: 58 µM
- Ki [11]: 285 µM

SMILES: O=C(Nc1nnn[nH]1)c1cc(-c2ccccc2)n(-c2ccccc2)n1
- Ki [12]: 239 µM
- Ki [13]: 56 µM

SMILES: O=C(Nc1nnn[nH]1)C(Nc1ccccc1)c1ccccc1 (centres undefined)
- Ki [12]: 479 µM
- Ki [13]: 477 µM

SMILES: S=c1[nH]ncn1NCc1ccc2c(c1)OCO2
- Ki [9]: 138 µM
- Ki [10]: 120 µM
- Ki [11]: 125 µM

SMILES: S=c1[nH]ncn1/N=C/c1c[nH]c2ccccc12
- Ki [9]: 139 µM
- Ki [10]: 95 µM
- Ki [11]: 104 µM

SMILES: O=C(Nc1nnn[nH]1)c1cc(-c2ccccc2)nn1-c1ccccc1
- Ki [12]: 44 µM
- Ki [13]: 62 µM

SMILES: O=C(Nc1nnn[nH]1)C(c1ccccc1)[S+]([O-])c1ccccc1 (centres undefined)
- Ki [12]: 1570 µM
- Ki [13]: 204 µM
